Experimental data reported in patent US10098351B2, “Herbicidal compounds” (SYNGENTA PARTICIPATIONS AG, priority 2014, dated 2018).

Assays:
Format in all cases: in vivo
[1] = test system: Zea mays; assay: Pre-emergence herbicidal activity, ZEAMX; settings: application pre-emergence, 1000 g/Ha, evaluated after 13 days; 5=total damage to plant, 0=no damage to plant
Method: (§1) Seeds of a variety of test species were sown in standard soil in pots. After cultivation for one day (pre-emergence) under controlled conditions in a glasshouse (at 24/16° C., day/night; 14 hours light; 65% humidity), the plants were sprayed with an aqueous spray solution derived from the formulation of the technical active ingredient in acetone/water (50:50) solution containing 0.5% Tween 20 (polyoxyethelyene sorbitan monolaurate, CAS RN 9005-64-5). The test plants were then grown in a glasshouse under controlled conditions (at 24/16° C., day/night; 14 hours light; 65% humidity) and watered twice daily. After 13 days, the test was evaluated (5=total damage to plant; 0=no damage to plant).

[2] = test system: Setaria faberi; assay: Post-emergence herbicidal activity, SETFA; settings: application post-emergence, 1000 g/Ha, evaluated after 13 days; 5=total damage to plant, 0=no damage to plant
Method: (§2) Seeds of a variety of test species were sown in standard soil in pots. After 8 days cultivation (post-emergence) under controlled conditions in a glasshouse (at 24/16° C., day/night; 14 hours light; 65% humidity), the plants were sprayed with an aqueous spray solution derived from the formulation of the technical active ingredient in acetone/water (50:50) solution containing 0.5% Tween 20 (polyoxyethelyene sorbitan monolaurate, CAS RN 9005-64-5). The test plants were then grown in a glasshouse under controlled conditions (at 24/16° C., day/night; 14 hours light; 65% humidity) and watered twice daily. After 13 days, the test was evaluated (5=total damage to plant; 0=no damage to plant).

[3] = test system: Zea mays; assay: Post-emergence herbicidal activity, ZEAMX; settings: application post-emergence, 1000 g/Ha, evaluated after 13 days; 5=total damage to plant, 0=no damage to plant
Method: as §2

[4] = test system: Setaria faberi; assay: Pre-emergence herbicidal activity, SETFA; settings: application pre-emergence, 1000 g/Ha, evaluated after 13 days; 5=total damage to plant, 0=no damage to plant
Method: as §1

[5] = test system: Abutilon theophrasti; assay: Pre-emergence herbicidal activity, ABUTH; settings: application pre-emergence, 1000 g/Ha, evaluated after 13 days; 5=total damage to plant, 0=no damage to plant
Method: as §1

[6] = test system: Amaranthus retroflexus; assay: Pre-emergence herbicidal activity, AMARE; settings: application pre-emergence, 1000 g/Ha, evaluated after 13 days; 5=total damage to plant, 0=no damage to plant
Method: as §1

[7] = test system: Echinochloa crus-galli; assay: Pre-emergence herbicidal activity, ECHCG; settings: application pre-emergence, 1000 g/Ha, evaluated after 13 days; 5=total damage to plant, 0=no damage to plant
Method: as §1

[8] = test system: Amaranthus retroflexus; assay: Post-emergence herbicidal activity, AMARE; settings: application post-emergence, 1000 g/Ha, evaluated after 13 days; 5=total damage to plant, 0=no damage to plant
Method: as §2

[9] = test system: Lolium perenne; assay: Pre-emergence herbicidal activity, LOLPE; settings: application pre-emergence, 1000 g/Ha, evaluated after 13 days; 5=total damage to plant, 0=no damage to plant
Method: as §1

[10] = test system: Echinochloa crus-galli; assay: Post-emergence herbicidal activity, ECHCG; settings: application post-emergence, 1000 g/Ha, evaluated after 13 days; 5=total damage to plant, 0=no damage to plant
Method: as §2

[11] = test system: Lolium perenne; assay: Post-emergence herbicidal activity, LOLPE; settings: application post-emergence, 1000 g/Ha, evaluated after 13 days; 5=total damage to plant, 0=no damage to plant
Method: as §2

[12] = test system: Abutilon theophrasti; assay: Post-emergence herbicidal activity, ABUTH; settings: application post-emergence, 1000 g/Ha, evaluated after 13 days; 5=total damage to plant, 0=no damage to plant
Method: as §2

Row | Compound | ZEAMX damage score [1] | SETFA damage score [2] | ZEAMX damage score [3] | SETFA damage score [4] | ABUTH damage score [5] | AMARE damage score [6] | ECHCG damage score [7] | AMARE damage score [8] | LOLPE damage score [9] | ECHCG damage score [10] | LOLPE damage score [11] | ABUTH damage score [12]
1 | C[C@@H]1C(O)N(c2ncc(C(F)(F)F)s2)C(=O)N1C (mixture of isomers) [Compound A6] | 4 | 5 | 5 | 5 | 5 | 5 | 5 | 5 | 5 | 5 | 5 | 5
2 | COC1C(O)N(c2ncc(C(F)(F)F)s2)C(=O)N1C (centres unmarked) [Compound A3] | 2 | 5 | 4 | 5 | 5 | 5 | 5 | 5 | 5 | 5 | 5 | 5
3 | CN1CC(O)N(c2ncc(C(F)(F)F)s2)C1=O (centres unmarked) [Compound A5, 4-hydroxy-1-methyl-3-[5-(trifluoromethyl)thiazol-2-yl]imidazolidin-2-one] | 2 | 5 | 5 | 5 | 5 | 5 | 4 | 5 | 5 | 5 | 5 | 5
4 | CON1C(=O)N(c2ncc(C(F)(F)F)s2)C(O)C1C (centres unmarked) [Compound B7] | 3 | 5 | 4 | 5 | 5 | 5 | 4 | 5 | 4 | 5 | 5 | 5
5 | CCOC1C(O)N(c2ncc(C(C)C)s2)C(=O)N1C (centres unmarked) [Compound A10] | 0 | 2 | 0 | 0 | 0 | 4 | 0 | 3 | 0 | 2 | – | 4
6 | CN1C(=O)N(c2ncc(C(F)(F)F)s2)C(O)C1O (centres unmarked) [Compound A4, 4,5-dihydroxy-1-methyl-3-[5-(trifluoromethyl)thiazol-2-yl]imidazolidin-2-one] | 3 | 5 | 4 | 4 | 5 | 5 | 5 | 5 | 4 | 5 | 5 | 5
7 | CCOC1C(O)N(c2ncc(C(F)(F)F)s2)C(=O)N1C (centres unmarked) [Compound A2, 5-ethoxy-4-hydroxy-1-methyl-3-[5-(trifluoromethyl)thiazol-2-yl]imidazolidin-2-one] | 3 | 5 | 5 | 5 | 5 | 5 | 5 | 5 | 5 | 5 | 5 | 5
8 | CCO[C@@H]1C(O)N(c2ncc(C(F)(F)F)s2)C(=O)N1C (some centres unmarked) [Compound A8] | 3 | 5 | 5 | 5 | 5 | 5 | 5 | 5 | 4 | 5 | 5 | 5
9 | CN1CC(O)N(c2ncc(C(C)(C)C)s2)C1=O (centres unmarked) [Compound A7] | 3 | 5 | 5 | 5 | 5 | 5 | 4 | 5 | 4 | 5 | 5 | 5
10 | CCCOC1C(O)N(c2ncc(C(F)(F)F)s2)C(=O)N1C (centres unmarked) [Compound A1] | 1 | 5 | 3 | 4 | 5 | 5 | 5 | 5 | 4 | 5 | 5 | 5
11 | CCO[C@H]1C(O)N(c2ncc(C(F)(F)F)s2)C(=O)N1C (some centres unmarked) [Compound A9] | 1 | 4 | 2 | 4 | 2 | 5 | 1 | 5 | 2 | 2 | 3 | 3
